Legend:
Format in all cases: biochemical
[1] = biological target: T1, MMP-12 catalytic domain (MMP-12CD) (Homo sapiens, UniProt P39900); assay: Inhibition of MMP-12 catalytic domain (thiopeptolide substrate hydrolysis)
T1 construct: MMP-3 catalytic domain, MMP-12 catalytic domain, MMP-14 catalytic domain, and MMP-17 catalytic domain
Source text: (§1) The assays measure the amount by which a test compound reduces the hydrolysis of a thiopeptolide substrate catalyzed by a matrix metalloproteinase enzyme. Such assays are described in detail by Ye et al., in Biochemistry, 1992;31(45):11231-11235, which is incorporated herein by reference. One such assay is described below in Biological Method 1.
(§2) Thiopeptolide substrates show virtually no decomposition or hydrolysis at or below neutral pH in the absence of a matrix metalloproteinase enzyme. A typical thiopeptolide substrate commonly utilized for assays is Ac-Pro-Leu-Gly-thioester-Leu-Leu-Gly-OEt. A 100 μL assay mixture will contain 50 mM of N-2-hydroxyethylpiperazine-N′-2-ethanesulfonic acid buffer (“HEPES,” pH 7.0), 10 mM CaCl2, 100 μM thiopeptolide substrate, and 1 mM 5,5′-dithio-bis-(2-nitro-benzoic acid) (DTNB). The thiopeptolide substrate concentration may be varied, for example from 10 to 800 μM to obtain Km and Kcat values. The change in absorbance at 405 nm is monitored on a Thermo Max microplate reader (molecular Devices, Menlo Park, Calif.) at room temperature (22° C.). The calculation of the amount of hydrolysis of the thiopeptolide substrate is based on E412=13600 M^−1 cm^−1 for the DTNB-derived product 3-carboxy-4-nitrothiophenoxide. Assays are carried out with and without matrix metalloproteinase inhibitor compounds, and the amount of hydrolysis is compared for a determination of inhibitory activity of the test compounds.
(§3) Test compounds were evaluated at various concentrations in order to determine their respective IC50 values, the micromolar concentration of compound required to cause a 50% inhibition of catalytic activity of the respective enzyme.
(§4) The test described above for the inhibition of MMP-13 may also be adapted and used to determine the ability of the compounds of Formula I to inhibit the matrix metalloproteases MMP-1, MMP-2, MMP-3, MMP-7, MMP-9, MMP-12 and MMP-14.

[2] = biological target: MMP-3 catalytic domain (MMP-3CD) (Homo sapiens, UniProt P08254); assay: Inhibition of MMP-3 catalytic domain (thiopeptolide substrate hydrolysis, MES pH 6.0)
Source text: as §1, §2, §3
It should be appreciated that the assay buffer used with MMP-3CD was 50 mM N-morpholinoethane sulfonate (“MES”) at pH 6.0 rather than the HEPES buffer at pH 7.0 described above.

[3] = biological target: T2, MMP-17 catalytic domain (MMP-17CD) (Homo sapiens, UniProt Q9ULZ9); assay: Inhibition of MMP-17 catalytic domain (thiopeptolide substrate hydrolysis)
T2 construct: MMP-3 catalytic domain, MMP-12 catalytic domain, MMP-14 catalytic domain, and MMP-17 catalytic domain
T2 sequence (Q9ULZ9 126-295 limits assumed): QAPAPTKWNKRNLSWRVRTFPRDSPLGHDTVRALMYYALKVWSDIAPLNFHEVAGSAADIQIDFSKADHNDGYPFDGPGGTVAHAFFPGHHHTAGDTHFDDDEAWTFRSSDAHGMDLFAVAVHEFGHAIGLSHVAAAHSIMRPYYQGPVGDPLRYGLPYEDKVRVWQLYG
Source text: as §1, §2, §3

[4] = biological target: T3, MMP-13 catalytic domain (MMP-13CD) (Homo sapiens, UniProt P45452); assay: Inhibition of MMP-13 catalytic domain (thiopeptolide substrate hydrolysis); details: Biological Table 1; read-out: MMP-13CD IC50
T3 construct: use the catalytic domain of the MMP-13 enzyme, namely matrix metalloproteinase-13 catalytic domain (“MMP-13CD”), rather than the corresponding full-length enzyme
Procedure, shortened: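 Catalytic domain of MMP-13 (MMP-13CD) with 100 μM Ac-Pro-Leu-Gly-thioester-Leu-Leu-Gly-OEt in 50 mM HEPES pH 7.0, 10 mM CaCl2, 1 mM DTNB at 22° C. Hydrolysis followed by absorbance at 405 nm; IC50 (μM) from multiple compound concentrations.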

[5] = biological target: MMP-14 catalytic domain (MMP-14CD) (Homo sapiens, UniProt P50281); assay: Inhibition of MMP-14 catalytic domain (thiopeptolide substrate hydrolysis)
Source text: as §1, §2, §3, §4

T1 sequence (P39900 106-263 limits assumed, species assumed): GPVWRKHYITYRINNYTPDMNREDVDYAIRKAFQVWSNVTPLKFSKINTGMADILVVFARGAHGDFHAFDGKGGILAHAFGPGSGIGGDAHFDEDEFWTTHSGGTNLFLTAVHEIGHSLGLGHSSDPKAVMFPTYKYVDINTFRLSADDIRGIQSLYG
MMP-3 catalytic domain (MMP-3CD), sequence (P08254 100-272 limits assumed, species assumed): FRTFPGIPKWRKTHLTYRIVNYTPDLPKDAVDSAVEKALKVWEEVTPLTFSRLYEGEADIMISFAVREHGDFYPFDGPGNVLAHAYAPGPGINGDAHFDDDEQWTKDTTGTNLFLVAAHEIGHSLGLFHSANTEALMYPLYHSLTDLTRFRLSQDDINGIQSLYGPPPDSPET

SMILES | IC50 [1] | IC50 [2] | IC50 [3] | IC50 [4] | IC50 [5]
CSc1ccc(CNC(=O)c2ccc3ccn(Cc4ccc(-c5nn[nH]n5)cc4)c(=O)c3c2)cc1 [Example 61, 1-oxo-2-[4-(2H-tetrazol-5-yl)benzyl]-1,2-dihydroisoquinoline-7-carboxylic Acid 4-methyl-sulfanylbenzylamide] | 5 µM | 12 µM | > 10 µM | 0.032 µM | > 10 µM
O=C(O)c1ccc(Cn2ccc3ccc(C(=O)NCc4cccnc4)cc3c2=O)cc1 [Example 30, 4-{1-oxo-7-[(pyridin-3-ylmethyl)carbamoyl]-1H-isoquinolin-2-ylmethyl}benzoic Acid] | > 100 µM | > 100 µM | > 100 µM | 0.4 µM | > 100 µM
O=c1c2cc(C#CCc3ccccc3)ccc2ccn1Cc1ccc(-c2nn[nH]n2)cc1 [Example 18, 7-(3-phenylprop-1-ynyl)-2-[4-(2H-tetrazol-5-yl)benzyl]-2H-isoquinolin-1-one] | > 30 µM | 4 µM | > 30 µM | 0.0029 µM | > 30 µM
COc1cc(CNC(=O)c2ccc3ccn(Cc4ccc(C(=O)O)cc4)c(=O)c3c2)ccc1O [Example 32] | > 100 µM | > 100 µM | > 100 µM | 0.15 µM | > 100 µM
CSc1ccc(CNC(=O)c2ccc3ccn(Cc4ccc(C#N)cc4)c(=O)c3c2)cc1 [Example 40, 2-(4-cyanobenzyl)-1-oxo-1,2-dihydro-isoquinoline-7-carboxylic Acid 4-methylsulfanyl-benzylamide] | 6.8 µM | 6.2 µM | > 10 µM | 0.43 µM | > 10 µM
Cc1ccc(CNC(=O)c2ccc3ccn(Cc4ccc(-c5nn[nH]n5)cc4)c(=O)c3c2)cc1 [Example 60, 1-oxo-2-[4-(2H-tetrazol-5-yl)benzyl]-1,2-dihydroisoquinoline-7-carboxylic Acid 4-methyl-benzylamide] | 22 µM | 31 µM | > 100 µM | 0.22 µM | > 100 µM
COc1cccc(CNC(=O)c2ccc3ccn(Cc4ccc(S(C)(=O)=O)cc4)c(=O)c3c2)c1 [Example 53, 2-(4-methane-sulfonylbenzyl)-1-oxo-1,2-dihydro-isoquinoline-7-carboxylic Acid 3-methoxy-benzylamide] | 61 µM | > 30 µM | > 100 µM | 0.21 µM | > 100 µM
O=C(O)c1ccc(Cn2ccc3ccc(C(=O)NCc4ccc(F)cc4)cc3c2=O)cc1 [Example 31, 4-[7-(4-fluoro-benzylcarbamoyl)-1-oxo-1H-isoquinolin-2-ylmethyl]benzoic Acid] | > 100 µM | > 100 µM | > 100 µM | 0.03 µM | > 100 µM
COc1cccc(CNC(=O)c2ccc3ccn(Cc4ccc(-c5nn[nH]n5)cc4)c(=O)c3c2)c1 [Example 59, 1-oxo-2-[4-(2H-tetrazol-5-yl)benzyl]-1,2-dihydroisoquinoline-7-carboxylic Acid 3-methoxy-benzylamide] | > 10 µM | > 10 µM | > 30 µM | 0.0029 µM | > 30 µM
COc1ccc(CNC(=O)c2ccc3ccn(Cc4ccc(S(C)(=O)=O)cc4)c(=O)c3c2)cc1 [Example 52, 2-(4-methane-sulfonylbenzyl)-1-oxo-1,2-dihydro-isoquinoline-7-carboxylic Acid 4-methoxy-benzylamide] | > 30 µM | > 30 µM | > 30 µM | 0.85 µM | > 30 µM
N#Cc1ccc(Cn2ccc3ccc(C#CCc4ccccc4)cc3c2=O)cc1 [Example 19] | > 100 µM | 5 µM | > 100 µM | 0.049 µM | 28 µM
O=C(O)c1ccc(Cn2ccc3ccc(C(=O)NCc4ccncc4)cc3c2=O)cc1 [Example 29, 4-{1-oxo-7-[(pyridin-4-ylmethyl)carbamoyl]-1H-isoquinolin-2-ylmethyl}benzoic Acid] | > 100 µM | > 100 µM | > 100 µM | 0.19 µM | > 100 µM
